Reference: patent publication US12624044B2, “SMARCA degraders and uses thereof” (Kymera Therapeutics, Inc., priority 2019, dated 2026)

Molecular target: SMARCA2 (Homo sapiens, UniProt P51531)
Test: MSD SMARCA2 degradation in NCI-H1299 cell line (24 h)
Assay type: cell-based
Parameters: HC: NCI-H1299 cells treated with DMSO; host or cells: NCI-H1299
Conditions: for Dmax: NCI-H1299, NCI-H1299 cells; for DC50: NCI-H1299 cells, read-out: SMARCA2 MSD H1299 degradation 24 h: External Abs-DC50
In short: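 SMARCA2 measured by MSD electrochemiluminescence (primary 0.3 ug/ml, secondary 1 ug/ml) on lysates from NCI-H1299 cells exposed to compounds for 24 h across nine 3-fold dilutions. Signal scaled from A2780 cells (no SMARCA2) to DMSO-treated H1299 controls, and maximal degradation after 24 h reported in letter categories.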

SMARCA2, sequence (P51531 whole entry): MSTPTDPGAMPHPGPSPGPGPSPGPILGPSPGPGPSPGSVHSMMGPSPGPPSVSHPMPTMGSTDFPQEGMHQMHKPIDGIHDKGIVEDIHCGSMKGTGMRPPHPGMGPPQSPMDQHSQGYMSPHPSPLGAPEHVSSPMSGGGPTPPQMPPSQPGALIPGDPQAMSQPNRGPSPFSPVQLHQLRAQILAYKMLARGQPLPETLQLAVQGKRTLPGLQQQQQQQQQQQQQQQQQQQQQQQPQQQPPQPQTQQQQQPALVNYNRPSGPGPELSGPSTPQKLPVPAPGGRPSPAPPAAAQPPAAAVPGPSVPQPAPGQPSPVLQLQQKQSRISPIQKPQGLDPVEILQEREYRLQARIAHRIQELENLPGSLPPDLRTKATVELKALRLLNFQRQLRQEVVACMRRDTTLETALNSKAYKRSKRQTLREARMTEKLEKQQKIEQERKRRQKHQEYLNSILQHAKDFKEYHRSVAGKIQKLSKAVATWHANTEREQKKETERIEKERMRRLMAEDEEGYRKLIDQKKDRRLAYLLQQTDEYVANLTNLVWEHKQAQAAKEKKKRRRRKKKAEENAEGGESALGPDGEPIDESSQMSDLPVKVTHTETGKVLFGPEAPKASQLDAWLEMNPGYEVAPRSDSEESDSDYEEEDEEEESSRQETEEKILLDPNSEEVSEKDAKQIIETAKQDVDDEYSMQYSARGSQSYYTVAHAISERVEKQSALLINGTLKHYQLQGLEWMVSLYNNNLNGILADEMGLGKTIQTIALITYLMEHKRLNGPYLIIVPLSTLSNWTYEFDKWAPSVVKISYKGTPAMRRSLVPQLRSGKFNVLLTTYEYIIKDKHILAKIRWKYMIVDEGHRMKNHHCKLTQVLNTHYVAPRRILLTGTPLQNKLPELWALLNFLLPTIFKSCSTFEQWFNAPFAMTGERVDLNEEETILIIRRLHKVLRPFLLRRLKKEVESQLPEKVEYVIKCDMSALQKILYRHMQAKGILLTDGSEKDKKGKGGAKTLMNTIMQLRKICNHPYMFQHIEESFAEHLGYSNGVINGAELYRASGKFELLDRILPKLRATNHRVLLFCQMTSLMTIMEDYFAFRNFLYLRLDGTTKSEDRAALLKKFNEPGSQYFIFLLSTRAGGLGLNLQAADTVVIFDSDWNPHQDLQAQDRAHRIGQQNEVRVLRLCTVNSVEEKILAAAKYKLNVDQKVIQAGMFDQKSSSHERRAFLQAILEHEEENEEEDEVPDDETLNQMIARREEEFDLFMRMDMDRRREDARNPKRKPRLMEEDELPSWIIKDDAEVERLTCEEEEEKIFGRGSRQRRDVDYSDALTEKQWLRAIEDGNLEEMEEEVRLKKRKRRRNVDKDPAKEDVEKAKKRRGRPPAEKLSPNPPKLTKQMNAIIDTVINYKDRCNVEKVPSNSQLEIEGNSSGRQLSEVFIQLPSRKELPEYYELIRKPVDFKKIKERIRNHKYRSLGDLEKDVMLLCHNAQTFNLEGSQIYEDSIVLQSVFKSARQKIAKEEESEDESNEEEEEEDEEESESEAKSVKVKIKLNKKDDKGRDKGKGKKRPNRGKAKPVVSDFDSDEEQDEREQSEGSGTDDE

| Dmax [%] | DC50 [µM] | SMILES |
| --- | --- | --- |
| > 90 | < 0.1 | Cn1c(=O)n(C2CCC(=O)NC2=O)c2cccc(CCCCN3CCC[C@@H](Cn4cc(-c5cc(-c6ccccc6O)nnc5N)cn4)C3)c21 (stereo partly drawn) [I-189] |
| 70 to 90 | 0.1 to 0.5 | Cn1c(=O)n(C2CCC(=O)NC2=O)c2cccc(CCCCCN3CCC[C@@H](Cn4cc(-c5cc(-c6ccccc6O)nnc5N)cn4)C3)c21 (stereo partly drawn) [I-190] |
| 50 to 70 | 0.1 to 0.5 | Cn1c(=O)n(C2CCC(=O)NC2=O)c2ccc(CCCN3CCC[C@@H](Cn4cc(-c5cc(-c6ccccc6O)nnc5N)cn4)C3)cc21 (stereo partly drawn) [I-191] |
| 50 to 70 | 0.1 to 0.5 | Cn1c(=O)n(C2CCC(=O)NC2=O)c2ccc(CCCCN3CCC[C@@H](Cn4cc(-c5cc(-c6ccccc6O)nnc5N)cn4)C3)cc21 (stereo partly drawn) [I-192] |
| 50 to 70 | 0.501 to 1 | Cn1c(=O)n(C2CCC(=O)NC2=O)c2ccc(CCCCCN3CCC[C@@H](Cn4cc(-c5cc(-c6ccccc6O)nnc5N)cn4)C3)cc21 (stereo partly drawn) [I-193, 3-[5-[5-[(3R)-3-[[4-[3-amino-6-(2-hydroxyphenyl)pyridazin-4-yl]pyrazol-1-yl]methyl]-1-piperidyl]pentyl]-3-methyl-2-oxo-benzimidazol-1-yl]piperidine-2,6-dione] |
| > 90 | < 0.1 | Cn1c(=O)n(C2CCC(=O)NC2=O)c2cccc(CCCN3CCC(Cn4cc(-c5cc(-c6ccccc6O)nnc5N)cn4)CC3)c21 (stereo not drawn) [I-194] |
| 50 to 70 | > 1 | CN[C@@H](C)C(=O)N[C@H](C(=O)N1CCC[C@H]1c1nc(C(=O)c2cccc(OCCOCCOCCNCc3ccc(-c4cc(-c5ccccc5O)nnc4N)cc3)c2)cs1)C1CCCCC1 [I-198, (S)—N—((S)-2-((S)-2-(4-(3-(2-(2-(2-((4-(3-amino-6-(2-hydroxyphenyl)pyridazin-4-yl)benzyl)amino)ethoxy)ethoxy)ethoxy)benzoyl)thiazol-2-yl)pyrrolidin-1-yl)-1-cyclohexyl-2-oxoethyl)-2-(methylamino)propanamide] |
| – | > 1 | CN[C@@H](C)C(=O)N[C@H](C(=O)N1Cc2cc(OCCOCCOCCOCCNC(=O)CCCOc3cccc(N4C[C@H]5C[C@@H]4CN5/C=C/C(=O)c4ccccc4O)n3)ccc2C[C@H]1C(=O)N[C@@H]1CCCc2ccccc21)C(C)(C)C [I-199] |
| – | > 1 | CN[C@@H](C)C(=O)N[C@H](C(=O)N1Cc2cc(OCCOCCOCCNC(=O)CCCOc3cccc(N4C[C@H]5C[C@@H]4CN5/C=C/C(=O)c4ccccc4O)n3)ccc2C[C@H]1C(=O)N[C@@H]1CCCc2ccccc21)C(C)(C)C [I-200] |
| – | > 1 | Cc1ncsc1-c1ccc(CNC(=O)[C@@H]2C[C@@H](O)CN2C(=O)[C@@H](NC(=O)COCCOCCOCCOCCNC(=O)CCCOc2cccc(N3C[C@H]4C[C@@H]3CN4/C=C/C(=O)c3ccccc3O)n2)C(C)(C)C)cc1 [I-201] |
| – | > 1 | CN[C@@H](C)C(=O)N[C@H](C(=O)N1Cc2cc(OCCOCCOCCOCCOCCOCCNC(=O)CCCCCCCCOc3ccnc(N4C[C@H]5C[C@@H]4CN5/C=C/C(=O)c4ccccc4O)c3)ccc2C[C@H]1C(=O)N[C@@H]1CCCc2ccccc21)C(C)(C)C [I-202] |
| – | > 1 | CN[C@@H](C)C(=O)N[C@H](C(=O)N1Cc2cc(OCCOCCOCCOCCOCCNC(=O)CCCCCCCCOc3ccnc(N4C[C@H]5C[C@@H]4CN5/C=C/C(=O)c4ccccc4O)c3)ccc2C[C@H]1C(=O)N[C@@H]1CCCc2ccccc21)C(C)(C)C [I-203] |
| – | > 1 | CN[C@@H](C)C(=O)N[C@H](C(=O)N1Cc2cc(OCCOCCOCCOCCNC(=O)CCCCCCCCOc3ccnc(N4C[C@H]5C[C@@H]4CN5/C=C/C(=O)c4ccccc4O)c3)ccc2C[C@H]1C(=O)N[C@@H]1CCCc2ccccc21)C(C)(C)C [I-204] |
| – | > 1 | CN[C@@H](C)C(=O)N[C@H](C(=O)N1Cc2cc(OCCOCCOCCNC(=O)CCCCCCCCOc3ccnc(N4C[C@H]5C[C@@H]4CN5/C=C/C(=O)c4ccccc4O)c3)ccc2C[C@H]1C(=O)N[C@@H]1CCCc2ccccc21)C(C)(C)C [I-205] |
| – | > 1 | CN[C@@H](C)C(=O)N[C@H](C(=O)N1Cc2cc(OCCOCCOCCOCCOCCOCCNC(=O)c3ccc(C(C)n4cc(-c5cc(-c6ccccc6O)nnc5N)cn4)cc3)ccc2C[C@H]1C(=O)N[C@@H]1CCCc2ccccc21)C(C)(C)C (stereo partly drawn) [I-206] |
| – | > 1 | CN[C@@H](C)C(=O)N[C@H](C(=O)N1Cc2cc(OCCOCCOCCOCCOCCNC(=O)c3ccc(C(C)n4cc(-c5cc(-c6ccccc6O)nnc5N)cn4)cc3)ccc2C[C@H]1C(=O)N[C@@H]1CCCc2ccccc21)C(C)(C)C (stereo partly drawn) [I-207] |
| – | > 1 | CN[C@@H](C)C(=O)N[C@H](C(=O)N1Cc2cc(OCCOCCOCCOCCNC(=O)c3ccc(C(C)n4cc(-c5cc(-c6ccccc6O)nnc5N)cn4)cc3)ccc2C[C@H]1C(=O)N[C@@H]1CCCc2ccccc21)C(C)(C)C (stereo partly drawn) [I-208] |
| – | > 1 | CN[C@@H](C)C(=O)N[C@H](C(=O)N1Cc2cc(OCCOCCOCCNC(=O)c3ccc(C(C)n4cc(-c5cc(-c6ccccc6O)nnc5N)cn4)cc3)ccc2C[C@H]1C(=O)N[C@@H]1CCCc2ccccc21)C(C)(C)C (stereo partly drawn) [I-209] |
| < 50 | > 1 | Cc1ncsc1-c1ccc(CNC(=O)[C@@H]2C[C@@H](O)CN2C(=O)[C@@H](NC(=O)CCCCCN(C)Cc2ccc(N3CCN(c4cc(-c5ccccc5O)nnc4N)CC3)cc2)C(C)(C)C)cc1 [I-212, (2S,4R)-1-[(2S)-2-[6-[[4-[4-[3-amino-6-(2-hydroxyphenyl)pyridazin-4-yl]piperazin-1-yl]phenyl]methyl-methyl-amino]hexanoylamino]-3,3-dimethyl-butanoyl]-4-hydroxy-N-[[4-(4-methylthiazol-5-yl)phenyl]methyl]pyrrolidine-2-carboxamide] |
| 70 to 90 | 0.501 to 1 | Cc1ncsc1-c1ccc(CNC(=O)[C@@H]2C[C@@H](O)CN2C(=O)[C@@H](NC(=O)CCCCCCCCCN(C)Cc2ccc(N3CCN(c4cc(-c5ccccc5O)nnc4N)CC3)cc2)C(C)(C)C)cc1 [I-213] |
| > 90 | 0.501 to 1 | Cc1ncsc1-c1ccc(CNC(=O)[C@@H]2C[C@@H](O)CN2C(=O)[C@@H](NC(=O)CCCCCCCCCN2CCC(Cn3cc(-c4cc(-c5ccccc5O)nnc4N)cn3)CC2)C(C)(C)C)cc1 [I-214] |
| < 50 | > 1 | Cc1ncsc1-c1ccc(CNC(=O)[C@@H]2C[C@@H](O)CN2C(=O)[C@@H](NC(=O)CCCCCN2CCC(Cn3cc(-c4cc(-c5ccccc5O)nnc4N)cn3)CC2)C(C)(C)C)cc1 [I-215, (2S,4R)-1-((S)-2-(6-(4-((4-(3-amino-6-(2-hydroxyphenyl)pyridazin-4-yl)-1H-pyrazol-1-yl)methyl)piperidin-1-yl)hexanamido)-3,3-dimethylbutanoyl)-4-hydroxy-N-(4-(4-methylthiazol-5-yl)benzyl)pyrrolidine-2-carboxamide] |
| 70 to 90 | 0.501 to 1 | Cc1ncsc1-c1ccc(CNC(=O)[C@@H]2C[C@@H](O)CN2C(=O)[C@@H](NC(=O)CCCCCCCN(C)Cc2ccc(N3CCN(c4cc(-c5ccccc5O)nnc4N)CC3)cc2)C(C)(C)C)cc1 [I-216] |
| > 90 | > 1 | Cc1ncsc1-c1ccc(CNC(=O)[C@@H]2C[C@@H](O)CN2C(=O)[C@@H](NC(=O)CCCCCCCN2CCC(Cn3cc(-c4cc(-c5ccccc5O)nnc4N)cn3)CC2)C(C)(C)C)cc1 [I-217] |
| – | > 1 | Cc1ncsc1-c1ccc(CNC(=O)[C@@H]2C[C@@H](O)CN2C(=O)[C@@H](NC(=O)COCCOCCOCCNC(=O)CCCOc2cccc(N3C[C@H]4C[C@@H]3CN4/C=C/C(=O)c3ccccc3O)n2)C(C)(C)C)cc1 [I-218] |
| – | > 1 | Cc1ncsc1-c1ccc(CNC(=O)[C@@H]2C[C@@H](O)CN2C(=O)[C@@H](NC(=O)COCCOCCOCCNC(=O)CCCCCCCCOc2ccnc(N3C[C@H]4C[C@@H]3CN4/C=C/C(=O)c3ccccc3O)c2)C(C)(C)C)cc1 [I-220] |
| – | > 1 | Cc1ncsc1-c1ccc(CNC(=O)[C@@H]2C[C@@H](O)CN2C(=O)[C@@H](NC(=O)COCCOCCOCCOCCOCCOCCNC(=O)CCCCCCCCOc2ccnc(N3C[C@H]4C[C@@H]3CN4/C=C/C(=O)c3ccccc3O)c2)C(C)(C)C)cc1 [I-221] |

| SMILES | Dmax [%] | DC50 [µM] |
| --- | --- | --- |
| CN(CC#Cc1cnc(N2C3CCC2CN(c2cc(-c4ccccc4O)nnc2N)C3)nc1)CCCc1ccc2c(c1)n(C)c(=O)n2C1CCC(=O)NC1=O (stereo not drawn) [I-195, 3-[5-[3-[3-[2-[3-[3-amino-6-(2-hydroxyphenyl)pyridazin-4-yl]-3,8-diazabicyclo[3.2.1]octan-8-yl]pyrimidin-5-yl]prop-2-ynyl-methyl-amino]propyl]-3-methyl-2-oxo-benzimidazol-1-yl]piperidine-2,6-dione] | > 90 | < 0.1 |
| Cn1c(=O)n(C2CCC(=O)NC2=O)c2ccc(CN3CCC(c4cnc(N5C6CCC5CN(c5cc(-c7ccccc7O)nnc5N)C6)nc4)CC3)cc21 (stereo not drawn) [I-196] | > 90 | < 0.1 |
| Cc1ncsc1-c1ccc(CNC(=O)[C@@H]2C[C@@H](O)CN2C(=O)[C@@H](NC(=O)CCCCCN2CCC(c3cnc(N4C5CCC4CN(c4cc(-c6ccccc6O)nnc4N)C5)nc3)CC2)C(C)(C)C)cc1 [I-210, (2S,4R)-1-[(2S)-2-[6-[4-[2-[3-[3-amino-6-(2-hydroxyphenyl)pyridazin-4-yl]-3,8-diazabicyclo[3.2.1]octan-8-yl]pyrimidin-5-yl]-1-piperidyl]hexanoylamino]-3,3-dimethyl-butanoyl]-4-hydroxy-N-[[4-(4-methylthiazol-5-yl)phenyl]methyl]pyrrolidine-2-carboxamide] | > 90 | 0.501 to 1 |
| Cc1ncsc1-c1ccc(CNC(=O)[C@@H]2C[C@@H](O)CN2C(=O)[C@@H](NC(=O)CN2CCC(c3cnc(N4C5CCC4CN(c4cc(-c6ccccc6O)nnc4N)C5)nc3)CC2)C(C)(C)C)cc1 [I-211, (2S,4R)-1-[(2S)-2-[[2-[4-[2-[3-[3-amino-6-(2-hydroxyphenyl)pyridazin-4-yl]-3,8-diazabicyclo[3.2.1]octan-8-yl]pyrimidin-5-yl]-1-piperidyl]acetyl]amino]-3,3-dimethyl-butanoyl]-4-hydroxy-N-[[4-(4-methylthiazol-5-yl)phenyl]methyl]pyrrolidine-2-carboxamide] | > 90 | 0.1 to 0.5 |
